Results from patent publication US20030211545A1, “Treatment of neuropsychiatric disease with protease and neurominidase inhibitors” (priority 2002, published 2003).
“Also recorded” adds a separate entry of the source. Read-outs that look alike come from different tables or passages of the source.

Columns and labels:
N-CAM 180 [1] = assay: Neuraminidase treatment of cytosolic and membrane brain extracts, N-CAM immunoblot; type: biochemical, human; settings: 1.25 U/ml diluted enzyme, 18 hrs at 37° C., FIG. 7A
Method: Membrane “extracts” and “cytosolic” tissue extracts of human occipital cortex were prepared as described^8 with slight modifications^9. Frozen pulverized occipital cortex ˜50 g was suspended in 1000 ml of cold 0.05M Tris buffered saline (TBS, pH 7.4) with protease inhibitors: antipain (4 μg/ml), pepstatin A (2 μg/ml), aprotinin (2 μg/ml), leupeptin (2 μg/ml), and phenyl methyl sulfonyl fluoride (0.1 μg/ml). The solution was homogenized (Tissumizer; Tekmar, Cincinnati Ohio) for 5×10 sec pulses in a 4° C. ice bath and 30 sec cooling interval between pulses. The homogenate was centrifuged for 30 min at 42,000×g at 4° C. The clear supernatant with visible lipid removed was the “cytosolic” fraction. The pellet was resuspended and washed with cold TBS-protease inhibitor cocktail and re-centrifuged at 42,000×g for 30 min at 4° C. […] The supernatant was labeled “membrane extract.” Protein content of the “cytosolic” and “membrane” sample was measured by the micro bicinchoninic acid method (Pierce, Ill.).
Neuraminidase treatment of cytosolic and membrane brain extracts was accomplished by using neuraminidase enzyme from Vibrio cholerae (˜2.49 Units/ml, Fluka) in pH 5.5, 0.15M NaCl, 4 mM CaCl2 that was diluted with 50 mM sodium acetate, 4 mM CaCl2 and 0.2 mM EDTA, (pH 5.0; Buffer A) to 1.25 U/ml. […] Samples were analyzed by immunoblot for N-CAM with antibody 3732. […]

[2] = cited from earlier work
[3] = cited from earlier work; remark: listed apart in the source
N-CAM 180 [4] = assay: Incubation of human occipital cortex membrane and cytosolic fractions with protease inhibitors, N-CAM immunoblot; type: biochemical
From the text: Fresh or frozen human brain cortex is dissected free of pia mater layer and any obvious blood vessels on the surface of the cortex. Pulverize the cortex in a sufficient quantity of liquid Nitrogen to a friable state with mortar and pestle, and accurately weigh out replicate samples of pulverized brain sample while keeping all vessels frozen in dry ice. Place the quantity of protease inhibitor or neuraminidase inhibitor in a PBS buffer of final pH 7.4 and maintain buffer on ice. Add the varying concentrations and combinations of protease inhibitors and/or neuraminidase inhibitors to separate pulverized brain in tubes in a final volume to yield a 20% weight of brain tissue/buffer volume. Allow the tubes to adjust to room temperature, and incubate at standard room temperature conditions for varying time points. The end-point of the assay is accomplished by addition of a 2× denaturing reducing sample buffer such as commercially available and previously published, and heat 3 min at 95 degrees C. Proceed to standard SDS-PAGE and immunoblot conditions to determine the breakdown products of parent molecule N-CAM. Use appropriate control incubations for temperature breakdown and buffer breakdown without protease inhibitors and/or neuraminidase inhibitors. The results can be quantitatively assessed by densitometry of immunoblots as previously published which yields a linear response within a loading range of proteins (˜1-100 μg of protein) depending on gel capacity used and concentrations of antibody and detection substrates which are empirically determined with standard methods. […]
Membrane and cytosolic fractions from human occipital cortex were incubated in the presence of protease inhibitors (10 μM final concentration) for varying lengths of time (typically 2, 4, 8, 16, 32, and 48 hrs at room temperature). An aliquot was analyzed by gel electrophoresis and immunoblotted with N-CAM 3732 antibody. […] The supernatant was labeled “membrane extract.” Protein content of the “cytosolic” and “membrane extract” sample was measured by the micro bicinchoninic acid method (Pierce, Ill.).

neuraminidase: neuraminidase enzyme from Vibrio cholerae (Fluka)
effect on N-CAM 180 in membrane extracts (N-CAM 180 [1]): removal of higher MW N-CAM 180

CC(C)CN(C[C@@H](O)[C@H](Cc1ccccc1)NC(=O)O[C@H]1CCOC1)S(=O)(=O)c1ccc(N)cc1 [Amprenavir]
effect of a high-fat meal on absorption of the drug ([2]; high-fat meal): decrease the absorption | severe or life-threatening rash ([2]; of recipients): 1% | severe or life-threatening rash ([2]; of those who develop a rash): 4% | severe and life-threatening skin reactions, including Stevens-Johnson syndrome ([2]; patients treated): 1%

Aprotinin
tolerability in humans ([3]; clinical trials): generally well tolerated | hypersensitivity reactions ([3]; patients receiving aprotinin for the first time): <0.1 to 0.6%

CC(=O)N[C@@H](CC(C)C)C(=O)N[C@@H](CC(C)C)C(=O)N[C@H](C=O)CCCNC(=N)N [leupeptin, Acetyl-leucyl-leucyl-arginal]
activity in prevention of the breakdown of N-CAM 180 and subsequent release/accumulation of cN-CAM (N-CAM 180 [4]; 10 μM final concentration, compared with the other protease inhibitors assayed individually): most activity; also recorded: most effective | inhibition of the increase in cN-CAM (N-CAM 180 [4]; 10 μM, room temperature, over the course of 48 hr, FIG. 8B and C): completely inhibited | potency compared to the protease inhibitor cocktail (N-CAM 180 [4]; assayed in human brain): most potent
